US20250382273A1 (INSTITUT NATIONAL DE LA SANTE ET DE LA RECHERCHE MEDICALE, priority 2022, published 2025)
Like-named read-outs stand apart in the source and are kept apart here.

Key:
[1] = test system: M. tuberculosis H37Rv_gfp; assay type: cell-based, Mycobacterium tuberculosis
[2] = test system: M. tuberculosis H37Rv_gfp; assay type: cell-based, Mycobacterium tuberculosis; conditions: in combination with delamanid 4 ng·mL−1, 5 days at 37° C.

Question: `O=C(Nc1nc2ccc(Oc3cc(C(F)(F)F)ccn3)cc2s1)[C@@H]1C2C=CC(C2)[C@@H]1C(=O)O` (stereo partly drawn) [Example 27, 3-[[6-[[4-(trifluoromethyl)-2-pyridyl]oxy]-1,3-benzothiazol-2-yl]carbamoyl]bicyclo[2.2.1]hept-5-ene-2-carboxylic acid] was tested. Which EC50 ([1]; in combination with pretomanid 20 ng·mL−1, 5 days at 37° C., […], read-out: EC50 H37Rv_gfp) did it give?
Answer: < 1000 nM

Question: And the EC50 ([1]; in combination with pretomanid, unit inferred, read-out: average EC50 H37Rv_gfp)?
Answer: 110 nM

Question: What about the EC50 [2] of the same compound?
Answer: 150 nM
